# Molecular target: T1, SstF (SFN-sensing transcription factor, LysR family) (Xanthomonas campestris, UniProt Q8PAP2)
# T1 sequence (Q8PAP2 1-344): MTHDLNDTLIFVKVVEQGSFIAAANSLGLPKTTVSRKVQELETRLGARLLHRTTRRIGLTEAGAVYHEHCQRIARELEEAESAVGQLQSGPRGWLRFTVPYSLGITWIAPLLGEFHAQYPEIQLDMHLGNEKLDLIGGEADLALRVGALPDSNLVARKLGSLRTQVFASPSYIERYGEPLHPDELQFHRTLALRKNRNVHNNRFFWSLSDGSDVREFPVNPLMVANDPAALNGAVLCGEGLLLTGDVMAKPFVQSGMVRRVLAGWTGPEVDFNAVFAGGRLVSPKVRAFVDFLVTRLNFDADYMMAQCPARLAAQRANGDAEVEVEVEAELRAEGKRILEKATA
# Experiment: SPR
# Type: binding
smiles,measurement,value
"C[S+]([O-])CCCCN=C=S (stereo not shown) [SFN, Sulforaphane]",Kd,17.3 nM

# — paper PMC10098062 (Molecular Plant Pathology, 2023)
